Experiments:
[1] = test system: diabetic rats; assay: Assay for inhibitory effects on blood glucose level increase in rats (liquid meal tolerance test); format: in vivo, rat; settings: test compound 1 mg/kg orally, liquid meal 17.25 kcal/kg, mean±S.E.; for Plasma glucose concentration 0.5 h: 0.5 hour after the drug administration; for Plasma glucose concentration 1 h: 1 hour after the drug administration
Experimental: Assay for Inhibitory Effects on Blood Glucose Level Increase in Rats
1) Preparation of Diabetic Rat Model
Male wistar rats (Japan Charles River), aged 8 weeks old, were injected nicotinamide (230 mg/kg) intraperitoneally. Fifteen minutes after injection, they were injected streptozotocin (85 mg/kg) intravenously from tail vain under anesthesia with ether. After a week, rats were fasted overnight and then glucose tolerance test (2 g/kg) was done.
2) Liquid Meal Tolerance Test
After overnight fasted, the diabetic rats were orally administered a test compound (1 mg/kg), which was dissolved in distilled water or 0.5% aqueous carboxymethylcellulose solution, in the drug-treating group, or distilled water or 0.5% aqueous carboxymethylcellulose solution alone in a control group. Immediately after the compound administration, 17.25 kcal/kg of liquid meal (No. 038, Control diet, assorted with dextrin and maltose; Oriental Yeast Co., Ltd.) was loaded orally. The blood was collected from tail artery immediately before and after administration with the time course, and treated with heparin immediately. The blood was centrifuged, and the plasma was collected to quantify the plasma glucose concentration by glucose oxidase method. The values in the Table are presented as the mean±S.E.

[2] = test system: Male ICR mice; assay: Acute toxicity test; format: in vivo; settings: n=5, oral dose of 1 g/kg, observed for 24 hours
Experimental: Male ICR mice (CLEA Japan, Inc.; 32-37 g, n=5), aged 6 weeks old, were fasted for 4 hours.

[3] = molecular target: T1, human SGLT1 (Homo sapiens, UniProt P13866); assay: Assay for inhibitory effects on human SGLT1 activity (uptake of methyl-α-D-glucopyranoside in CS1-5-11D cells); format: cell-based; settings: CHO-K1 cells stably expressing human SGLT1 (CS1-5-11D); 1 mM α-MG uptake, 37° C., 1 hour
T1 construct: expressed in transfected cells
T1 sequence (P13866 1-664): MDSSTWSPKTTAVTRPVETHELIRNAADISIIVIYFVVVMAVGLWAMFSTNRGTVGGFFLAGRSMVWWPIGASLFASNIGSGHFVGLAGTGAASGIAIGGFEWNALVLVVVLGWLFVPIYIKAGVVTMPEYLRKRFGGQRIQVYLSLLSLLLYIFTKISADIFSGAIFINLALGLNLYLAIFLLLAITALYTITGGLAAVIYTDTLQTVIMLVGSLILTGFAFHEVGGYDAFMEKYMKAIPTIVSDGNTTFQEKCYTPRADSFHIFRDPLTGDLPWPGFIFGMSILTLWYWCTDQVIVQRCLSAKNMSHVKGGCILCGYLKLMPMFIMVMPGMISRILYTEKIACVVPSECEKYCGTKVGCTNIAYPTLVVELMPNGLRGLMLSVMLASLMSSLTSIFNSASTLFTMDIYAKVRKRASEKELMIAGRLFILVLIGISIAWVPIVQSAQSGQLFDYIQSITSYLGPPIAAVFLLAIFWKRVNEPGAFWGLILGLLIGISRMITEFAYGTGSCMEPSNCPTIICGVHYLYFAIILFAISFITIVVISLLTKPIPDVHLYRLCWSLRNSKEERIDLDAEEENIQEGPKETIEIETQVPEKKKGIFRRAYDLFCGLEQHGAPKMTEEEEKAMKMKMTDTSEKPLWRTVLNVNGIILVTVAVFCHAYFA
Experimental: Assay for Inhibitory Effects on Human SGLT1 Activity
1) Cloning and Construction of the Vector Expressing Human SGLT1
The cDNA library was prepared for PCR amplification by reverse transcription from total RNA deprived from human small intestine (Ori gene) using oligo-dT as a primer.
2) Establishment of Cell Line Stably Expressing Human SGLT1
The expression vector of human SGLT1 was digested by Sca I into a linear DNA. The linear DNA was transfected into CHO-K1 cells by means of lipofection (Effectene Transfection Reagent: QIAGEN). Neomycin resistant cell lines were selected by culture in the medium containing G418 (1 mg/mL, LIFE TECHNOLOGIES), and then the activity against the uptake of methyl-α-D-glucopyranoside was measured by the method described below. […] CS1-5-11D cells were cultured in the presence of G418 at 200 μg/mL.
3) Measurement of the Inhibitory Activity Against the Uptake of Methyl-α-D-glucopyranoside (α-MG)
CS1-5-11D cells were seeded into a 96-well culture plate at a density of 3×10^4 cells/well and cultured for 2 days, and were used in the uptake assay. A mixture of non-labeled (Sigma) and ^14C-labeled α-MG (Amersham Pharmcia Biotec) was added to the uptake buffer (pH 7.4: containing 140 mM sodium chloride, 2 mM potassium chloride, 1 mM calcium chloride, 1 mM magnesium chloride, 10 mM 2-[4-(2-hydroxyethyl)-1-piperazinyl]ethane sulfonic acid, and 5 mM tris(hydroxymethyl)aminomethane) at the final concentration of 1 mM. A test compound was dissolved in dimethyl sulfoxide, and then appropriately diluted with distilled water. The test compound solution was added to the uptake buffer containing 1 mM α-MG, and designated as a measurement buffer. For the control group, the measurement buffer without any test compound was prepared. For measuring the basal uptake, a basal uptake measurement buffer which contains 140 mM chorine chloride instead of sodium chloride was prepared. After removing the culture medium of CS1-5-11D cells, 180 μL of the pre-treatment buffer (the basal uptake buffer without α-MG) was added to each well and incubated at 37° C. for 10 minutes. After repeating the same treatment, the pre-treatment buffer was removed. To each well was added 75 μL of the measurement buffer or the basal uptake buffer was added and incubated at 37° C. for 1 hour. After removing the measurement buffer, cells were washed twice with 180 μL per well of the washing buffer (the basal uptake buffer containing 10 mM non-labeled α-MG). The cells were solubilized by 75 μL per well of 0.2 mol/L sodium hydroxide. The cell lysates were transferred into PicoPlates (Packard), and then added 150 μL of MicroScint-40 (Packard) and mixed. Radioactivity was measured by means of micro-scintillation counter TopCount (Packard). One hundred was set to the difference between the uptake in the control group and the basal uptake, and the uptake of methyl α-D-glucopyranoside a teach drug concentration were calculated.

| SMILES | Plasma glucose concentration 0.5 h [1] | Plasma glucose concentration 1 h [1] | Number of death [2] | IC50 [3] |
| --- | --- | --- | --- | --- |
| Cc1cc(OCCCNCCC(N)=O)ccc1Cc1c(O[C@@H]2O[C@H](CO)[C@@H](O)[C@H](O)[C@H]2O)n[nH]c1C(C)C [Example 52, 4-[(4-{3-[2-(Carbamoyl)ethylamino]propoxy}-2-methylphenyl)methyl]-3-(β-D-glucopyranosyloxy)-5-isopropyl-1H-pyrazole] | 163 ± 5 mg/dL | 176 ± 10 mg/dL | 0/5 |  |
| Cc1cc(OCCCN2CCN(CCO)CC2)ccc1Cc1c(O[C@@H]2O[C@H](CO)[C@@H](O)[C@H](O)[C@H]2O)n[nH]c1C(C)C [Example 35, 3-(β-D-Glucopyranosyloxy)-4-[(4-{3-[4-(2-hydroxyethyl)piperazin-1-yl]propoxy}-2-methylphenyl)methyl]-5-isopropyl-1H-pyrazole] | 188 ± 16 mg/dL | 229 ± 25 mg/dL |  | 0.16 µM |
| CC(C)c1[nH]nc(O[C@@H]2O[C@H](CO)[C@@H](O)[C@H](O)[C@H]2O)c1Cc1ccc(OCCCNC(=O)NC(C)(C)CO)cc1 [Example 24, 3-(β-D-Glucopyranosyloxy)-4-{[4-(3-{3-[2-hydroxy-1,1-di(methyl)ethyl]ureido}propoxy)phenyl]methyl}-5-isopropyl-1H-pyrazole] | 210 ± 33 mg/dL | 228 ± 50 mg/dL |  | 0.061 µM |
| CC(C)c1[nH]nc(O[C@@H]2O[C@H](CO)[C@@H](O)[C@H](O)[C@H]2O)c1Cc1ccc(OCCCNC(=NC#N)NCCO)cc1 [Example 37, 4-[(4-{3-[2-Cyano-3-(2-hydroxyethyl)guanidino]propoxy}phenyl)methyl]-3-(β-D-glucopyranosyloxy)-5-isopropyl-1H-pyrazole] | 231 ± 21 mg/dL | 286 ± 31 mg/dL |  | 0.158 µM |

— patent US8324176B2, “Pyrazole derivatives, medicinal composition containing the same, medicinal use thereof, and intermediate for production thereof” (Kissei Pharmaceutical Co., Ltd., priority 2002, dated 2012)
